The text below walks through data of patent US20230025067A1, “SOLID LOW FOAMING IN DISSOLUTION AND LOW PH ALL-PURPOSE CLEANER AND DISINFECTANT COMPOSITIONS” (Reckitt Benckiser LLC, priority 2021, published 2023).

One data set relates to Staphyloccocus aureus. Particulars: 1 mg/mL solution in a 20% dimethyl sulfoxide water solution; cited from earlier work.
A further data set has as its system germ. Briefly: R&D germ kill testing of aqueous citric acid solutions. The data set is classed as cell-based. As to conditions: aqueous solutions containing 2.5% w/v. The text has this:
As discussed above, lemon juice contains 5-8% citric acid, amongst other potentially disinfecting ingredients like malic acid, ascorbic acid, and essential oils.

Data set [1] is described as follows: Tableting and stability of R&D formulations with other citric acid grades. It is filed as physicochemical. As to conditions: R&D formulations similar to Formula E1.

In the case of `O=C(O)CC(O)(CC(=O)O)C(=O)O` [citric acid], the “activity against Staphyloccocus aureus” value in the data set on Staphyloccocus aureus is “inactive”. The germ kill results with germ is given as “did not produce consistent or satisfactory germ kill results”. As to `O=C(O)CC(O)(CC(=O)O)C(=O)O` [Citric acid anhydrous, citric acid anhydrous], the “suitability for tablet formulation (hygroscopicity, tableting)” value in data set [1] is on record as “too hygroscopic for use in a tablet formulation”.
